Experimental data as given in patent publication US20070276025A1, “Indirubin-Type Compounds, Compositions, and Methods for Their Use” (priority 2003, published 2007).
Like-named read-outs stand apart in the source and are kept apart here.

How the values were obtained:
CDK1/cyclin B = CDK1/cyclin B kinase assay (histone H1, 15 μM ATP); format: biochemical, starfish (Marthasterias glacialis)
CDK5/p25 = CDK5/p25 (Homo sapiens, UniProt Q00535); experiment: CDK5/p25 kinase assay (histone H1, 15 μM ATP); format: biochemical, mammalian
Sequence of CDK5/p25 (Q00535 whole entry, species assumed): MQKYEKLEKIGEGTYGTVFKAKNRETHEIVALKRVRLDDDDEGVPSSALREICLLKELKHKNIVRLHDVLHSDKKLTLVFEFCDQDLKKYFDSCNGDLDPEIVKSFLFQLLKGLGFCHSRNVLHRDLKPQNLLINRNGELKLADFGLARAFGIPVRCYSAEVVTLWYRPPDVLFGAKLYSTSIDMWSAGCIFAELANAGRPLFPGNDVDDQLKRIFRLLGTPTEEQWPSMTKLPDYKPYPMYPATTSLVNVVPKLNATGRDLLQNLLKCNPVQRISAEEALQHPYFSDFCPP
Sequence of CDK5/p25 (Q15078 99-307 partner limits assumed, species assumed): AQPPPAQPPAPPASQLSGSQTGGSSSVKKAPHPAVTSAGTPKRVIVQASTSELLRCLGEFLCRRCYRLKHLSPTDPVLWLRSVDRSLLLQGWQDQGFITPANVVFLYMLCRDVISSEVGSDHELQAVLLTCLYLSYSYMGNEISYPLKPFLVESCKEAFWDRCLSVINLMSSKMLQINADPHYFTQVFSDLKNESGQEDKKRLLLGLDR

AhR [1] = target: T1, AhR (Mus musculus, UniProt P30561); details: read-out: EC50 AhR (hepatoma cell line); Table 4; EGFP at 24 hours
T1 sequence (P30561 1-848): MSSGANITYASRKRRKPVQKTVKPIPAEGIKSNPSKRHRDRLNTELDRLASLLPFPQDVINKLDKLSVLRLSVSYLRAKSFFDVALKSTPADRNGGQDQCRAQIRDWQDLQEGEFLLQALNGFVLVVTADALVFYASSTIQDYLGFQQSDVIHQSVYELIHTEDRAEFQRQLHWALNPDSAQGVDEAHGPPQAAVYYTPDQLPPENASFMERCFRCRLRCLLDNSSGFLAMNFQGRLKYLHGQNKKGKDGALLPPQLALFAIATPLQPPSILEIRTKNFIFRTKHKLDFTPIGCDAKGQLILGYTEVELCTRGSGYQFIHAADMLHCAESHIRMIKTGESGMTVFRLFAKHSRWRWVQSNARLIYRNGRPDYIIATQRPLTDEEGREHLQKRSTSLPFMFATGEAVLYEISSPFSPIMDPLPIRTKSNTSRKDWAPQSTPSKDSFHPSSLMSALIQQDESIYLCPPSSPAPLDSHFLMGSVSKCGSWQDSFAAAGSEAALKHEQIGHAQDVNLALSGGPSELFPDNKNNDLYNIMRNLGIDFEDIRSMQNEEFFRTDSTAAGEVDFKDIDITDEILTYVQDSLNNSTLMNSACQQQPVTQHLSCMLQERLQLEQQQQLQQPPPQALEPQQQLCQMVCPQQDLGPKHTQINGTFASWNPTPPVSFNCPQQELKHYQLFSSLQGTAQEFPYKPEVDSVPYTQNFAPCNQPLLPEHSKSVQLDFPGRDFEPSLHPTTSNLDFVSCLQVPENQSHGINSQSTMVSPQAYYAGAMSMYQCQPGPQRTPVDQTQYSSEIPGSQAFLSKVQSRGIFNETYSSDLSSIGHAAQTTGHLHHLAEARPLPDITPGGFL

AhR [2] = target: T2, AhR (Homo sapiens, UniProt P35869); experiment: Yeast AhR reporter assay (β-galactosidase); details: read-out: EC50 AhR (yeast); Table 4; * = inactive at the indicated highest concentration tested
T2 sequence (P35869 11-848): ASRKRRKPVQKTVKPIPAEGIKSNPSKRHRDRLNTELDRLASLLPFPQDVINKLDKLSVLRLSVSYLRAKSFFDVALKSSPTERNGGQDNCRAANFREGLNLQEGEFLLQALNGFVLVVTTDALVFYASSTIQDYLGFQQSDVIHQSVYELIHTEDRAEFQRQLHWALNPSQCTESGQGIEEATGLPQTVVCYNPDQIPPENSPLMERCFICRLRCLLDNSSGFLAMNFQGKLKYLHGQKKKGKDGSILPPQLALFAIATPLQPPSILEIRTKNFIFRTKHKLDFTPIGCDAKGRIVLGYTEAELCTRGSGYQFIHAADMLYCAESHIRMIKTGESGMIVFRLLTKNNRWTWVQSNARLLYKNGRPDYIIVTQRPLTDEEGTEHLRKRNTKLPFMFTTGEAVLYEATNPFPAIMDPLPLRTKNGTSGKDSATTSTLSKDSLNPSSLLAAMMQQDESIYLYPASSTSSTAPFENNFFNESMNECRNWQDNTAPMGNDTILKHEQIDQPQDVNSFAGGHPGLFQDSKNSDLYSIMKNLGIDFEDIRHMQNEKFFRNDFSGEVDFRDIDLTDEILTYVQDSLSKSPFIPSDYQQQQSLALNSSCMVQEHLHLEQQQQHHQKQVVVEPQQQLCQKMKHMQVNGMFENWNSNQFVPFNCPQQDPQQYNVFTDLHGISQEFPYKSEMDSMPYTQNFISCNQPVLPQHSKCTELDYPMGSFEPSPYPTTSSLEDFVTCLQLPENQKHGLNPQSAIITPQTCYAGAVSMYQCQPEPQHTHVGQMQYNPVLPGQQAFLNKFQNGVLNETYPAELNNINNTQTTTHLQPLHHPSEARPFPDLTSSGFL
T2 sequence (P27540 whole entry partner): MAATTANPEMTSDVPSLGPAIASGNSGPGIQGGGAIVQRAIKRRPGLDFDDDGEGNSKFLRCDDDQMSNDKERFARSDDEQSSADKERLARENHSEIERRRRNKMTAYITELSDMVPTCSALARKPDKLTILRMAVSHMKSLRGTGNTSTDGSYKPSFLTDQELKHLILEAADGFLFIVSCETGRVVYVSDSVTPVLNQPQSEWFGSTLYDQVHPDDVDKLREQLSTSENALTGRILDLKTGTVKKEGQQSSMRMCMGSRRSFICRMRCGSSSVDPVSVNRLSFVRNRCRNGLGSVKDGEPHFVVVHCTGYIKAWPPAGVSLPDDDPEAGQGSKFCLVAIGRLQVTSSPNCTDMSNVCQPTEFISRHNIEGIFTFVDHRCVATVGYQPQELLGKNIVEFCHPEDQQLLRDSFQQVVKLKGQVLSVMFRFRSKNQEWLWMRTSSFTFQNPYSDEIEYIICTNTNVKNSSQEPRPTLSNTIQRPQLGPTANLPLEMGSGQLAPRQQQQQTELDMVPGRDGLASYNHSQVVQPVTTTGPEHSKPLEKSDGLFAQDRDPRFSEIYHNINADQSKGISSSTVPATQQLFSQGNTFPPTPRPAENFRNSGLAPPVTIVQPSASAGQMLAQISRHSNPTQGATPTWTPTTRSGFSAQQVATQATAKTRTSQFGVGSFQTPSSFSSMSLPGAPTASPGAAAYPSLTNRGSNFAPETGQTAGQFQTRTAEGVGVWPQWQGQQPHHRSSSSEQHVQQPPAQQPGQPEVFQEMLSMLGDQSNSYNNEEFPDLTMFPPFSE

GSK-3α/β = GSK-3α/β kinase assay (GS-1 peptide, 15 μM ATP); format: biochemical, porcine
AhR [3] = target: T2, AhR
[4] = Table 4, read-out: IC50 CDK1/cycin B
[5] = Table 5, read-out: IC50 CDK1/cyclin B
[6] = Table 5, read-out: IC50 CDK5/p25
[7] = Table 7, GSK-3, read-out: IC50exp
[8] = Table 1, read-out: IC50 CDK5/p25
[9] = Table 5, read-out: IC50 GSK-3α/β
[10] = Table 1, read-out: IC50 CDK1/cyclin B
[11] = Table 1, read-out: IC50 GSK-3 α/β
[12] = Table 6, read-out: GSK-3 (IC50 μM)
[13] = Table 6, read-out: CDK-5 (IC50 μM)

| Compound | IC50 (CDK1/cyclin B; [5]) [nM] | IC50 (CDK5/p25; [6]) [µM] | EC50 (AhR [1]) [nM] | IC50 (GSK-3α/β; [7]) [µM] | IC50 (GSK-3α/β; [9]) [µM] | other results |
| --- | --- | --- | --- | --- | --- | --- |
| 6-Chloroindirubin [5d] | > 100000 | > 100 | 7 |  |  | IC50 (CDK1/cyclin B; [4]): > 100000 nM; EC50 (AhR [2]): 30 nM |
| O=C1Nc2ccc(F)cc2C1=C1Nc2ccccc2C1=O [5-Fluoroindirubin, reference compound] |  |  |  | 0.078 |  |  |
| O=C1Nc2ccc([N+](=O)[O-])cc2C1=C1Nc2ccccc2C1=O [5-Nitroindirubin, reference compound] |  |  |  | 0.042 |  |  |
| O=C1Nc2cc(Br)ccc2C1=C1Nc2ccccc2C1=O [5a, 6-Bromoindirubin] |  | 53 | 8 |  |  | IC50 (CDK5/p25; [8]): 53 µM; EC50 (AhR [2]): 20 nM |
| O=C1Nc2cc(F)ccc2/C1=C1/Nc2ccccc2C1=O [5b, 6-Fluoroindirubin] |  | 1 |  |  |  |  |
| O=C1Nc2cc(I)ccc2/C1=C1/Nc2ccccc2C1=O [5c, 6-Iodoindirubin] | 1600 | 5.3 | 17 | 0.055 | 0.055 | IC50 (CDK1/cyclin B; [4]): 1600 nM; IC50 (GSK-3α/β; Table 4, read-out: IC50 GSK-3): 0.055 µM; EC50 (AhR [2]): 40 nM |
| O=C1Nc2cc(Cl)c(Cl)cc2/C1=C1/Nc2ccccc2C1=O [5e, 5,6-Dichloroindirubin] | 45000 | 60 |  | 0.03 | 0.03 |  |
| Cc1cc2c(cc1Br)NC(=O)C2=C1Nc2ccccc2C1=O [5f, 6-Bromo-5-methylindirubin] | 30000 | 60 |  | 0.025 | 0.025 |  |
| O=C1Nc2cc(Br)c([N+](=O)[O-])cc2C1=C1Nc2ccccc2C1=O [5g, 6-Bromo-5-nitroindirubin] | > 100000 | > 100 |  | 0.1 | 0.1 |  |
| O=C1Nc2ccccc2/C1=C1/Nc2ccccc2C1=O [5h, indirubin] |  |  | 59 |  |  | EC50 (AhR [3]): 6 nM |
| C=Cc1ccc2c(c1)NC(=O)/C2=C1\Nc2ccccc2C1=O [5i, 6-Vinylindirubin] | 4200 | 2.4 |  |  | 0.24 |  |
| O=C1Nc2cc(F)ccc2C1=C1Nc2ccccc2C1=NO [7b, 6-Fluoroindirubin-3′-oxime] | 320 | 0.15 |  | 0.13 | 0.13 |  |
| O=C1Nc2cc(I)ccc2C1=C1Nc2ccccc2C1=NO [7c, 6-Iodoindirubin-3′-oxime] |  | 0.3 | 440 |  |  | EC50 (AhR [2]): > 100 nM |
| O=C1Nc2cc(Cl)ccc2C1=C1Nc2ccccc2C1=NO [7d, 6-Chloroindirubin-3′-oxime] | 650 | 0.1 | 200 | 0.02 | 0.02 | IC50 (CDK1/cyclin B; [4]): 650 nM; IC50 (GSK-3α/β; Table 4, read-out: IC50 GSK-3): 0.02 µM; EC50 (AhR [2]): 4 nM |
| Cc1cc2c(cc1Br)NC(=O)C2=C1Nc2ccccc2C1=NO [7f, 6-Bromo-5-methylindirubin-3′-oxime] |  | 0.13 |  |  |  |  |
| O=C1Nc2cc(Br)c([N+](=O)[O-])cc2C1=C1Nc2ccccc2C1=NO [7g, 6-Bromo-5-nitroindirubin-3′-oxime] |  | 0.15 |  |  |  |  |
| C=Cc1ccc2c(c1)NC(=O)C2=C1Nc2ccccc2C1=NO [7i, 6-Vinylindirubin-3′-oxime] |  | 0.42 |  |  | 0.06 |  |
| CC(=O)O/N=C1/C(=C2/C(=O)Nc3cc(I)ccc32)Nc2ccccc21 [8c, 6-Iodoindirubin-3′-acetoxime] | 2200 | 1.3 |  |  | 0.013 |  |
| CC(=O)O/N=C1/C(=C2/C(=O)Nc3cc(Cl)ccc32)Nc2ccccc21 [8d, 6-Chloroindirubin-3′-acetoxime] | 30000 | 0.2 |  | 0.017 | 0.017 |  |

| Compound | IC50 (CDK1/cyclin B; [5]) [nM] | IC50 (CDK5/p25; [6]) [µM] | EC50 (AhR [1]) [nM] | IC50 (GSK-3α/β; [7]) [µM] | IC50 (GSK-3α/β; [9]) [µM] | other results |
| --- | --- | --- | --- | --- | --- | --- |
| CC(=O)ON=C1C(=C2C(=O)Nc3cc(Cl)c(Cl)cc32)Nc2ccccc21 [8e, 5,6Dichloroindirubin-3′-acetoxime] | 30000 | 0.1 |  | 0.004 | 0.004 |  |
| CC(=O)ON=C1C(=C2C(=O)Nc3cc(Br)c(C)cc32)Nc2ccccc21 [8f, 6-Bromo-5-methylindirubin-3′-acetoxime] | 31000 | 30 |  | 0.007 | 0.007 |  |
| CC(=O)ON=C1C(=C2C(=O)Nc3cc(Br)c([N+](=O)[O-])cc32)Nc2ccccc21 [8g, 6-Bromo-5-nitroindirubin-3′-acetoxime] | 11000 | 31 |  | 0.006 | 0.006 |  |
| C=Cc1ccc2c(c1)NC(=O)C2=C1Nc2ccccc2C1=NOC(C)=O [8i, 6-vinylindirubin-3′-acetoxime] | 1600 | 0.4 |  |  | 0.065 |  |
| CON=C1C(=C2C(=O)Nc3ccccc32)Nc2ccccc21 [9b, Indirubin-3′-methoxime] |  | 0.4 |  |  |  |  |
| O=C1Nc2ccccc2/C1=C1/Nc2cc(Br)ccc2C1=O [12a, 6′-Bromoindirubin] | > 100000 | > 100 | 1200 | 22 | 22 | IC50 (CDK1/cyclin B; [10]): > 100000 nM; IC50 (CDK1/cyclin B; [4]): > 100000 nM; IC50 (CDK5/p25; [8]): > 100 µM; IC50 (GSK-3α/β; [11]): 22 µM; IC50 (GSK-3α/β; Table 4, read-out: IC50 GSK-3): 22 µM; EC50 (AhR [2]): 100 nM |
| O=C1Nc2cc(Br)ccc2/C1=C1/Nc2cc(Br)ccc2C1=O [12b, 6,6′-Dibromoindirubin] | > 100000 | > 100 | > 10000 | 4.5 | 4.5 | IC50 (CDK1/cyclin B; [10]): ≥ 100000 nM; IC50 (CDK1/cyclin B; [4]): > 100000 nM; IC50 (CDK5/p25; [8]): > 100 µM; IC50 (CDK5/p25; read-out: IC50 with CDK5): > 100 µM; IC50 (GSK-3α/β; [11]): 4.5 µM; IC50 (GSK-3α/β; Table 4, read-out: IC50 GSK-3): 4.5 µM; IC50 (GSK-3α/β; read-out: IC50 with GSK-3): 4.5 µM |
| CN1C(=O)C(=C2Nc3ccccc3C2=O)c2ccc(Br)cc21 [12c, 6-Bromo-1-methylindirubin] | > 100000 | > 100 | 50 |  | > 100 | IC50 (CDK1/cyclin B; [4]): > 100000 nM; IC50 (CDK5/p25; [8]): > 100 µM; IC50 (GSK-3α/β; [11]): > 100 µM; IC50 (GSK-3α/β; Table 4, read-out: IC50 GSK-3): > 100 µM; EC50 (AhR [2]): ≥ 100 nM |
| CN1C(=O)/C(=C2\Nc3ccccc3C2=O)c2ccccc21 [12d, 1-Methylindirubin] | > 100000 | > 100 | 830 |  | > 100 | IC50 (CDK1/cyclin B; [4]): > 100000 nM; IC50 (GSK-3α/β; Table 4, read-out: IC50 GSK-3): > 100 µM; EC50 (AhR [2]): 6 nM |
| O=C1Nc2cccc(Cl)c2/C1=C1/Nc2ccccc2C1=O [compound 6, 4-Chloroindirubin] | 10000 | 10 | 310 |  | > 100 | IC50 (CDK1/cyclin B; [4]): 10000 nM; IC50 (GSK-3α/β; Table 4, read-out: IC50 GSK-3): > 100 µM; EC50 (AhR [2]): > 100 nM |
| Cc1ccc2c(c1)/C(=C1/Nc3ccccc3C1=O)C(=O)N2 [compound 15, 5-methyl-indirubin, reference compound] |  |  | 25 | 0.062 |  | EC50 (AhR [3]): 40 nM; IC50 (CDK1/cyclin B; read-out: IC50 CDK1/cycin B): 280 nM; IC50 (GSK-3α/β; Table 4, read-out: IC50 GSK-3): 0.062 µM |
| O=C1Nc2ccc(Br)cc2/C1=C1/Nc2ccccc2C1=O [compound 16, 5-bromo-indirubin, reference compound] |  |  | 7 | 0.055 |  | EC50 (AhR [3]): 35 nM; IC50 (CDK1/cyclin B; [4]): 230 nM; IC50 (GSK-3α/β; Table 4, read-out: IC50 GSK-3): 0.055 µM |
| O=C1Nc2ccc(Cl)cc2/C1=C1/Nc2ccccc2C1=O [compound 17, 5-chloro-indirubin, reference compound] |  |  | 52 | 0.05 |  | EC50 (AhR [3]): 40 nM; IC50 (CDK1/cyclin B; [4]): 280 nM; IC50 (GSK-3α/β; Table 4, read-out: IC50 GSK-3): 0.05 µM |
| O=C1Nc2ccc(I)cc2/C1=C1/Nc2ccccc2C1=O [compound 18, 5-iodo-indirubin, reference compound] |  |  |  |  |  | EC50 (AhR [3]): 30 nM; IC50 (CDK1/cyclin B; [4]): 220 nM |
| Nc1ccc2c(c1)C(=C1Nc3ccccc3C1=O)C(=O)N2 [compound 23, 5-Aminoindirubin] |  |  |  |  |  | IC50 (CDK5/p25): 2.6 µM; IC50 (GSK-3α/β; [12]): 1.5 µM |
| Nc1ccc2c(c1)/C(=C1/Nc3ccccc3C1=NO)C(=O)N2 [compound 24, 5-Amino-3′-oxime indirubin] |  |  |  |  |  | IC50 (CDK5/p25; [13]): 0.47 µM; IC50 (GSK-3α/β; [12]): 0.75 µM |
| Nc1cc2c(cc1Br)NC(=O)C2=C1Nc2ccccc2C1=O [compound 27, 6-Bromo-5-aminoindirubin] |  |  |  |  |  | IC50 (CDK5/p25; [13]): 0.6 µM; IC50 (GSK-3α/β; [12]): 0.054 µM |
| Nc1cc2c(cc1Br)NC(=O)/C2=C1\Nc2ccccc2C1=NO [compound 28, 6-Bromo-5-amino-3′-oxime indirubin] |  |  |  |  |  | IC50 (CDK5/p25; [13]): 0.57 µM; IC50 (GSK-3α/β; [12]): 0.056 µM |
